Test systems include A549; HCT-15; HL-60; HOP-62; LOX IMVI; MOLT-4; Malme-3M; NCI-H23; OVCAR-4; OVCAR-5; OVCAR-8; SF-295; SF-539; SK-MEL-2; SNB-75; T47D; TK-10; U-251; UACC-257; RXF 393.
Common to all, as to assay: DTP human tumour cell line panel, 48 h

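Each compound was tested at five concentrations against cells in 96-well plates for 48 hours. Abbreviation: GI50, concentration required for 50% inhibition of growth.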 Active and inactive are the calls of the source. Rule as the data show it: active = GI50 up to about 1.1 µM and inactive = higher. Bounds are passed on as bounds.

In the case of `CC1(C)OC(=O)C(C)(C)C(=O)O1`, the GI50 was > 100 µM (inactive) in the assay with A549; above 100 µM in the assay with HCT-15; > 10 µM (inactive) in the assay with HL-60; > 100 µM (inactive) in the assay with HOP-62; > 100 µM (inactive) in the assay on LOX IMVI; > 100 µM (inactive) in the assay with MOLT-4. In addition, the GI50 in the assay with Malme-3M, in the assay on NCI-H23, in the assay with OVCAR-4, with OVCAR-5, in the assay on OVCAR-8 and with SF-295 was > 100 µM (inactive) throughout. The GI50 in the assay with SF-539, in the assay on SK-MEL-2, in the assay with SNB-75, in the assay on T47D, in the assay on TK-10 and with U-251 was > 100 µM (inactive) throughout. Also, the GI50 in the assay on UACC-257 is > 100 µM (inactive).

Regarding `O=[N+]([O-])c1ccc(CSc2nn(Cc3ccc([N+](=O)[O-])cc3)cc3ncnc2-3)cc1`, the GI50 in the assay with A549 is 39 µM (inactive); with HCT-15, 43.1 µM; with HL-60 it was 21.5 µM (inactive); with HOP-62, 31.8 µM (inactive); in the assay with LOX IMVI it was 33.9 µM (inactive); in the assay with MOLT-4, 23.5 µM (inactive). Besides, the GI50 with Malme-3M is 27.4 µM (inactive); in the assay with NCI-H23, 26.4 µM (inactive); in the assay with OVCAR-4, 52.5 µM (inactive); in the assay with OVCAR-5, > 100 µM (inactive); in the assay with OVCAR-8 it was 33.2 µM (inactive); with SF-295, 45.3 µM (inactive). For the same molecule, the GI50 was 32 µM (inactive) in the assay with SF-539; 19.7 µM (inactive) in the assay with SK-MEL-2; 34.1 µM (inactive) in the assay on SNB-75; 44.6 µM (inactive) in the assay on T47D; 29 µM (inactive) in the assay with TK-10; > 10 µM (inactive) in the assay with U-251. Further, in the assay with UACC-257, the GI50 is 29 µM (inactive).

Regarding `COC(=O)c1ccccc1/C=C1\Cc2cc3c(cc2C1=O)CCC3`, the GI50 in the assay on A549 is > 100 µM (inactive); in the assay on HCT-15 it was 29.8 µM; in the assay on HL-60 it was > 100 µM (inactive); in the assay on HOP-62 it was 29.6 µM (inactive); in the assay on LOX IMVI it was > 100 µM (inactive); with MOLT-4 it was > 100 µM (inactive). For the same molecule, the GI50 in the assay with Malme-3M was > 100 µM (inactive); in the assay on NCI-H23 it was > 100 µM (inactive); in the assay on OVCAR-4 it was > 100 µM (inactive); in the assay with OVCAR-5, > 100 µM (inactive); with OVCAR-8 it was > 100 µM (inactive); with SF-295, 43.5 µM (inactive). The GI50 in the assay on SF-539 was > 100 µM (inactive); with SK-MEL-2, 20.7 µM (inactive); with SNB-75, 34.9 µM (inactive); in the assay with T47D, > 100 µM (inactive); in the assay with TK-10 it was 59.8 µM (inactive); with U-251 it was 43 µM (inactive). Also, the GI50 in the assay on UACC-257 was > 100 µM (inactive).

As to `C[C@H]1CN[C@@H]2[C@@H](C)[C@H]3[C@@H](C[C@H]4[C@@H]5CC[C@H]6C[C@@H](N)CC[C@]6(C)[C@H]5CC[C@]34C)O[C@@]2(O)C1`, the GI50 in the assay on A549 is 3.8 µM (inactive); in the assay on HCT-15, 1.38 µM; with HL-60, 1.64 µM (inactive); in the assay with LOX IMVI, 1.73 µM (inactive); in the assay with MOLT-4, 1.69 µM (inactive); in the assay with Malme-3M, 1.64 µM (inactive). The GI50 with NCI-H23 is 12.9 µM (inactive); in the assay on OVCAR-4, 3.75 µM (inactive); with OVCAR-5 it was 5.47 µM (inactive); with OVCAR-8, 2.04 µM (inactive); in the assay on SF-295, 2.92 µM (inactive); in the assay with SF-539, 1.27 µM (inactive). Moreover, the GI50 is 3.06 µM (inactive) with SK-MEL-2; 2.44 µM (inactive) with SNB-75; 2.23 µM (inactive) in the assay on T47D; 2.53 µM (inactive) with TK-10; 1.67 µM (inactive) in the assay on U-251; 1.85 µM (inactive) in the assay on UACC-257.

For the molecule `CC(C)(OCc1ccccc1)c1ccccc1P(c1ccccc1)c1ccccc1`, the GI50 with A549 was 38.7 µM (inactive); in the assay on HCT-15, 36.4 µM; with HL-60, 13.5 µM (inactive); with HOP-62, 60 µM (inactive); in the assay with MOLT-4, 17.2 µM (inactive); in the assay on Malme-3M, 26.2 µM (inactive). Besides, the GI50 with NCI-H23 was 21.7 µM (inactive); with OVCAR-4, 31.3 µM (inactive); in the assay on OVCAR-5, > 100 µM (inactive); with OVCAR-8, 39.9 µM (inactive); with RXF 393 it was > 100 µM (inactive); in the assay with SF-295 it was 44.8 µM (inactive). For the same molecule, the GI50 in the assay on SF-539 was > 100 µM (inactive); with SK-MEL-2, 73.5 µM (inactive); in the assay with SNB-75, > 100 µM (inactive); in the assay on T47D, 28.4 µM (inactive); with TK-10, 37.1 µM (inactive); with U-251 it was 27.9 µM (inactive). In addition, in the assay on UACC-257, the GI50 was 22.3 µM (inactive).

In the case of `C=C(C)[C@@H]1CC[C@]2(C(=O)OC)CC[C@]3(C)[C@H](CC[C@@H]4[C@@]5(C)CC[C@H](O)C(C)(C)[C@@H]5CC[C@]43C)[C@@H]12` [METHYL BETULINATE], the GI50 was 17.7 µM (inactive) with A549; 20.5 µM in the assay with HCT-15; 35.5 µM (inactive) with HL-60; 18.8 µM (inactive) in the assay with HOP-62; 18.4 µM (inactive) in the assay with LOX IMVI; 18.8 µM (inactive) in the assay on MOLT-4. The GI50 is 22.5 µM (inactive) with Malme-3M; 30.3 µM (inactive) with NCI-H23; 26.8 µM (inactive) in the assay on OVCAR-5; 21.5 µM (inactive) in the assay on OVCAR-8; 14.5 µM (inactive) in the assay with RXF 393; 18.4 µM (inactive) in the assay with SF-295. The GI50 was 13.7 µM (inactive) in the assay on SF-539; 21.6 µM (inactive) in the assay with SNB-75; 12 µM (inactive) with T47D; > 10 µM (inactive) in the assay on TK-10; 17.8 µM (inactive) in the assay with U-251; 19.3 µM (inactive) in the assay with UACC-257.

Take `CCSc1[nH]c(/N=C(/NC(=O)c2ccccc2)NC(C)C)c(C(N)=O)c1C(N)=O`: the GI50 is > 10 µM (inactive) with A549; above 10 µM in the assay with HCT-15; > 10 µM (inactive) with HL-60; > 10 µM (inactive) in the assay with LOX IMVI; > 10 µM (inactive) with MOLT-4; > 10 µM (inactive) in the assay with Malme-3M. For the same molecule, the GI50 with NCI-H23, with OVCAR-4, in the assay with OVCAR-8, with RXF 393, in the assay on SF-295 and in the assay with SNB-75 was > 10 µM (inactive) throughout. Moreover, the GI50 with T47D, in the assay with TK-10 and in the assay on UACC-257 was > 10 µM (inactive) throughout.

Take `Cc1n[nH]/c(=N\S(=O)(=O)c2ccc(/N=N/c3c(O)c(C(=O)O)cc4ccccc34)cc2)s1`: the GI50 in the assay on A549 is > 100 µM (inactive); with HCT-15, above 100 µM; in the assay with HL-60, > 100 µM (inactive); in the assay on HOP-62, > 100 µM (inactive); in the assay on MOLT-4 it was > 100 µM (inactive); with Malme-3M it was > 100 µM (inactive). In addition, the GI50 in the assay on NCI-H23, in the assay on OVCAR-4, in the assay with OVCAR-5, in the assay with OVCAR-8, in the assay with RXF 393 and in the assay with SF-295 was > 100 µM (inactive) throughout. The GI50 with SF-539, in the assay with SK-MEL-2, in the assay with SNB-75, with T47D, in the assay with TK-10 and with U-251 was > 100 µM (inactive) each time. The GI50 with UACC-257 was > 100 µM (inactive).

For `COC1=CC(=O)N(C)C(O)C1(C#N)OC1OC(CO)C(O)C(O)C1O` (stereo unspecified), the GI50 in the assay on A549 is > 100 µM (inactive); in the assay with HCT-15, above 100 µM; in the assay with HL-60, > 100 µM (inactive); in the assay with HOP-62 it was > 100 µM (inactive); in the assay on LOX IMVI, > 100 µM (inactive); in the assay on MOLT-4, > 100 µM (inactive). The GI50 in the assay on NCI-H23, in the assay with OVCAR-4, with OVCAR-5, with OVCAR-8, in the assay on SF-295 and with SF-539 was > 100 µM (inactive) in each case. The GI50 in the assay on SK-MEL-2, with SNB-75, in the assay on T47D, with TK-10, in the assay on U-251 and in the assay with UACC-257 was > 100 µM (inactive) in each case.

With `O=C(COc1ccc(Cl)c(Cl)c1)N(Cc1ccccc1)Cc1ccc[n+](Cc2ccc(Cl)cc2S(=O)(=O)F)c1`, the GI50 in the assay with A549 was > 100 µM (inactive); with HCT-15, 31.5 µM; in the assay on HL-60, 30.9 µM (inactive); in the assay on HOP-62, > 100 µM (inactive); with MOLT-4, 21.4 µM (inactive); in the assay with Malme-3M, 20 µM (inactive). Also, the GI50 is 41.3 µM (inactive) with NCI-H23; > 100 µM (inactive) in the assay on OVCAR-4; > 100 µM (inactive) in the assay on OVCAR-5; > 100 µM (inactive) with OVCAR-8; > 100 µM (inactive) with RXF 393; > 100 µM (inactive) in the assay with SF-295. The GI50 in the assay with SF-539 was 12.9 µM (inactive); with SK-MEL-2, 25.4 µM (inactive); in the assay with SNB-75 it was > 100 µM (inactive); in the assay with T47D it was 59.7 µM (inactive); in the assay with TK-10, 53.3 µM (inactive); with U-251 it was 25.8 µM (inactive). In the assay on UACC-257, the GI50 is 35.4 µM (inactive).

Consider `O=C(c1cc2c(c3ccccc13)NCCN=C2C(F)(F)F)C(F)(F)F`, for which the GI50 was 45.3 µM in the assay on HCT-15; 16.3 µM (inactive) in the assay on HL-60; 19.7 µM (inactive) with HOP-62; 13.7 µM (inactive) in the assay on LOX IMVI; 7.11 µM (inactive) in the assay on MOLT-4; 40.6 µM (inactive) in the assay on NCI-H23. In addition, the GI50 in the assay with OVCAR-4 is 38.7 µM (inactive); in the assay on OVCAR-5, 65.3 µM (inactive); in the assay on OVCAR-8 it was 34.5 µM (inactive); with RXF 393, 23.3 µM (inactive); in the assay on SF-295 it was 16 µM (inactive); in the assay with SF-539, 20.1 µM (inactive). The GI50 is 18.7 µM (inactive) with SK-MEL-2; 21.6 µM (inactive) in the assay with SNB-75; 21.4 µM (inactive) with T47D; 24.9 µM (inactive) in the assay on TK-10; 13.5 µM (inactive) in the assay with U-251; 19.3 µM (inactive) with UACC-257.

Values taken from ChEMBL document CHEMBL1201862, “PubChem BioAssay data set” (2004).
